The values that follow come from patent US20200131144A1, “AMINE OR (THIO)AMIDE CONTAINING LXR MODULATORS” (Phenex-FXR GmbH, priority 2017, published 2020).

Series [1] concerns the target T1, GST-LXRβ ligand-binding domain (Homo sapiens, UniProt P55055, INS174Q).
T1 construct: amino acids 156-461; NP009052; made in house; host or cells: E. coli
T1 sequence (P55055 with tags, fused parts or gaps INS174Q limits assumed): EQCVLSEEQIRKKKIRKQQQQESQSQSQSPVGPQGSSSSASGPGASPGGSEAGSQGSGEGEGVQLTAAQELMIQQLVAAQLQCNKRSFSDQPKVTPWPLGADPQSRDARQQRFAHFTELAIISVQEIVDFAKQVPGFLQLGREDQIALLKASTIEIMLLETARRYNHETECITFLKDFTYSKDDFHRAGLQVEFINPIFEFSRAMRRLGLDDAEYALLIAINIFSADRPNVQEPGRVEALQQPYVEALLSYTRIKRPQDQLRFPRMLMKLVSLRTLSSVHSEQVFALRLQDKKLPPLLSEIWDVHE
Description: TR-FRETβ activity assay (NCoA3 coactivator peptide recruitment). It counts as biochemical. Particulars: 1 μM 24(S)-25-epoxycholesterol as prestimulating agonist; inverse agonist unless *. The procedure, abridged:
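E. coli-expressed GST-LXRβ LBD (aa 156-461, 76 nM) with biotinylated NCoA3 peptide (400 nM), anti-GST-Tb cryptate donor and streptavidin-XL665 acceptor in 240 mM KCl, BSA, 0.002% Triton X-100. Equilibrated 1 h at 4° C; TR-FRET read at 615/665 nm, triplicates.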

Series [2] can be described thus: Short term HFD mouse model: liver and plasma exposure after multiple oral dosing. Conditions: C57BL/6J, HFD mice, 4 h after final dose; for Kp at 4 h: liver/plasma, read-out: liver/plasma ratio, 4 h. It counts as in vivo, mice (C57BL/6J). The source says: Short Term HFD Mouse Model:
For this, C57BL/6J were purchased from Elevage Janvier (Rennes, France) at the age of 8 weeks. After an acclimation period of two weeks, animals were prefed on a high fat diet (HFD) (Ssniff Spezialdiäten GmbH, Germany, Surwit EF D12330 mod, Cat. No. E15771-34), with 60 kcal % from fat plus 1% (w/w) extra cholesterol (Sigma-Aldrich, St. Louis, Mo.) for 5 days. Animals were maintained on this diet during treatment with LXR modulators. The test compounds were formulated in 0.5% hydroxypropylmethylcellulose (HPMC) and administered in three doses (from 1.5 to 20 mg/kg each) by oral gavage according to the following schedule: on day one, animals received treatment in the morning and the evening (ca. 17:00), on day two animals received the final treatment in the morning after a 4 h fast and were sacrificed 4 h thereafter. Animal work was conducted according to the national guidelines for animal care in Germany.
Multiple oral dosing of compounds from the present invention in mice lead to a high liver exposure with a favourable liver to plasma ratio. […] These genes are related to hepatic de-novo lipogenesis. A suppression of these genes will reduce liver fat (liver triglycerides).

The mark [3] stands for this setting: liver, three oral doses of 10 mg/kg each, read-out: liver exposure, 4 h.
The mark [4] stands for this setting: three oral doses of 10 mg/kg each.
The mark [5] stands for this setting: plasma, three oral doses of 10 mg/kg each, read-out: plasma exposure, 4 h.
Where [6] appears, read: liver, three oral doses of 20 mg/kg each, read-out: liver exposure, 4 h.
Setting [7] is: three oral doses of 20 mg/kg each.
[8] abbreviates: plasma, three oral doses of 20 mg/kg each, read-out: plasma exposure, 4 h.
[9] abbreviates: liver, three oral doses of 1.5 mg/kg each, read-out: liver exposure, 4 h.
Where [10] appears, read: three oral doses of 1.5 mg/kg each.
Setting [11] is: plasma, three oral doses of 1.5 mg/kg each, read-out: plasma exposure, 4 h.

Where two headings read alike, the source gives them in different places.

Turning to `Cc1cc(C)c(C(=O)N(Cc2ccc(-c3cccc(C(C)(C)C(=O)O)c3)cc2)Cc2ccc(C(F)(F)F)o2)c(C)c1` [10/1], the concentration giving a half-maximal response (EC50) (as a rule, the concentration that produces a half-maximal response) in series [1] was 100 to 1000 nM.
`Cc1ccc2ccccc2c1C(=O)N(Cc1ccc(-c2cccc([C@@H](C)C(=O)O)c2)cc1)Cc1ccc(C(F)(F)F)o1` [10/5]: the EC50 in series [1] was less than 100 nM. Moreover, the concentration at 4 h came out at 24.9 µM in series [2] (setting [3]) and 3.16 µM in series [2] (setting [5]). Moreover, in series [2] (setting [4]), the Kp at 4 h is 7.9.
In series [1], `Cc1ccc2ccccc2c1C(=O)N(Cc1ccc(-c2cc(F)c(CO)c(S(=O)(=O)CC(=O)O)c2)cc1)Cc1ccc(C(F)(F)F)o1` [22/8] showed a 50% effective concentration (EC50) of 1000 to 10000 nM. The concentration at 4 h in series [2] (setting [6]) is 2.82 µM; in series [2] (setting [8]), 0.051 µM. In addition, the Kp at 4 h in series [2] (setting [7]) worked out at 55.7.
`Cc1ccc2ccccc2c1C(=O)N(Cc1ccc(C(F)(F)F)o1)Cc1ccc(-c2cccc(C(C)(C)C(=O)O)c2)cc1C#N` [27/7] yielded an EC50 in series [1] of less than 100 nM. Also, the concentration at 4 h in series [2] (setting [6]) is 14.8 µM; in series [2] (setting [8]), 0.281 µM. For the same compound, in series [2] (setting [7]), the Kp at 4 h stood at 52.5.
Consider `Cc1ccc2ccccc2c1C(=O)N(Cc1ccc(-c2cccc(C(C)(O)C(=O)O)c2)cc1)Cc1ccc(C(F)(F)F)o1` (stereo not drawn) [27/10], for which the EC50 in series [1] was 100 to 1000 nM. For the same compound, the concentration at 4 h came to 9.93 µM in series [2] (liver, three oral doses of 3 mg/kg each, read-out: liver exposure, 4 h); 43.3 µM in series [2] (setting [3]); 0.047 µM in series [2] (plasma, three oral doses of 3 mg/kg each, read-out: plasma exposure, 4 h); 1.44 µM in series [2] (setting [5]). Moreover, the results for the Kp at 4 h in series [2] (three oral doses of 3 mg/kg each) and in series [2] (setting [4]) were 211 and 30, respectively.
`COc1ccc2c(c1CN(Cc1ccc(-c3cccc(C(C)(C)C(=O)O)c3)cc1)Cc1ccc(C(F)(F)F)o1)CCCC2` [27/17] gave an EC50 in series [1] of 100 to 1000 nM. Also, the figures for the concentration at 4 h in series [2] (setting [3]) and in series [2] (setting [5]) were 6.8 µM and 2.92 µM, respectively. Besides, the Kp at 4 h in series [2] (setting [4]) came to 2.3.
With `Cc1ccc2ccccc2c1C(=O)N(Cc1ccc(-c2cccc(C(C)(C)C(=O)O)c2)cc1)Cc1ccc(C(F)(F)F)o1` [27/26], in series [1], the EC50 was less than 100 nM. Moreover, the concentration at 4 h stood at 6.73 µM in series [2] (setting [9]), 44.6 µM in series [2] (setting [6]), 1.04 µM in series [2] (setting [11]) and 15.3 µM in series [2] (setting [8]). For the same compound, the Kp at 4 h in series [2] (setting [10]) was 6.5; in series [2] (setting [7]), 2.9.
In the case of `CCOC(=O)c1ccc(CN(Cc2ccc(-c3cccc(C(C)(C)C(=O)O)c3)cc2)C(=O)c2c(C)ccc3ccccc23)o1` [27/28], the EC50 in series [1] was less than 100 nM. For the same compound, the concentration at 4 h in series [2] (setting [9]) is 4.3 µM; in series [2] (setting [6]), 13.8 µM; in series [2] (setting [11]), 0.007 µM; in series [2] (setting [8]), 0.008 µM. The Kp at 4 h in series [2] (setting [10]) stood at 600; in series [2] (setting [7]) it was 1790.
In turn, `Cc1ccc2ccccc2c1C(=O)N(Cc1ccc(-c2cccc(C(C)(C)C(=O)O)c2)cc1)Cc1ccc(C(F)F)o1` [27/36] registered an EC50 in series [1] of 100 to 1000 nM. Also, the concentration at 4 h in series [2] (setting [3]) was 80.2 µM; in series [2] (setting [5]), 3.02 µM. Moreover, in series [2] (setting [4]), the Kp at 4 h came out at 26.6.
On to `Cc1ccc2ccccc2c1C(=O)N(Cc1ccc(-c2cccc(C(C)(C)C(=O)O)c2)cc1)Cc1ccc(C#N)o1` [27/38], for which the half-maximal effective concentration (EC50) in series [1] is less than 100 nM. Moreover, the concentration at 4 h in series [2] (setting [6]) turned out to be 37.5 µM; in series [2] (setting [8]) it was 2.37 µM. In series [2] (setting [7]), the Kp at 4 h was found to be 15.8.
For `CCc1nc2ccccc2c(C(=O)N(Cc2ccc(-c3cccc(C(C)(C)C(=O)O)c3)cc2)Cc2ccc(C(F)(F)F)o2)c1C` [27/43] the same measures were 1000 to 10000 nM, 44.3 µM, 1.36 µM and 32.5.
With `COc1ccc2c(c1C(=O)N(Cc1ccc(-c3cccc(C(C)(C)C(=O)O)c3)cc1)Cc1ccc(C(F)(F)F)o1)CCCC2` [27/45], in series [1], the concentration giving a half-maximal response (EC50) was less than 100 nM. Further, the concentration at 4 h in series [2] (setting [3]) was determined as 320 µM; in series [2] (setting [5]), 0.871 µM. The Kp at 4 h in series [2] (setting [4]) came out at 367.
In turn, `CC(C)(C(=O)O)c1cccc(-c2ccc(CN(Cc3ccc(C(F)(F)F)o3)C(=O)c3c4ccccc4cc4ccccc34)cc2)c1` [27/47] returned an EC50 in series [1] of less than 100 nM. Further, the concentration at 4 h was found to be 38.4 µM in series [2] (setting [6]) and 1.07 µM in series [2] (setting [8]). Moreover, the Kp at 4 h in series [2] (setting [7]) is 36.
As for `COc1cc(-c2cccc(C(C)(C)C(=O)O)c2)ccc1CN(Cc1ccc(C(F)(F)F)o1)C(=O)c1c(C)ccc2ccccc12` [27/66], in series [1], the EC50 fell in the range of 100 to 1000 nM. For the same compound, the concentration at 4 h in series [2] (setting [3]) was 75.3 µM; in series [2] (setting [5]), 0.399 µM. Moreover, in series [2] (setting [4]), the Kp at 4 h came to 189.
For `Cc1ccc2ccccc2c1C(=O)N(Cc1ccc(-c2cc(F)cc(C3(C(=O)O)CC3)c2)cc1)Cc1ccc(C(F)(F)F)o1` [27/76] the same measures were 100 to 1000 nM, 37.9 µM, 2.31 µM and 16.4.
For `Cc1ccc2ccccc2c1C(=O)N(Cc1ccc(C(F)(F)F)o1)Cc1ncc(-c2cccc(C(C)(C)C(=O)O)c2)cc1Cl` [27/78] the same measures were less than 100 nM, 18.4 µM, 0.3 µM and 61.3.
For `Cc1nc2ccccc2c(C(=O)N(Cc2ccc(-c3cccc(C(C)(C)C(=O)O)c3)cc2)Cc2ccc(C(F)(F)F)o2)c1C` [27/79] the same measures were 100 to 1000 nM, 36.5 µM, 0.931 µM and 39.2.
With `COc1c(C)nc2ccccc2c1C(=O)N(Cc1ccc(-c2cccc(C(C)(C)C(=O)O)c2)cc1)Cc1ccc(C(F)(F)F)o1` [27/81], in series [1], the concentration giving a half-maximal response (EC50) is 100 to 1000 nM. Also, the concentration at 4 h stood at 43.2 µM in series [2] (setting [3]) and 0.849 µM in series [2] (setting [5]). The Kp at 4 h in series [2] (setting [4]) is 50.8.
For `Cc1nc2cccnc2c(C(=O)N(Cc2ccc(-c3cccc(C(C)(C)C(=O)O)c3)cc2)Cc2ccc(C(F)(F)F)o2)c1C` [27/93] the same measures were 100 to 1000 nM, 155 µM, 2.1 µM and 73.7.
As to `Cc1ccc2ccccc2c1C(=O)N(Cc1ccc(-c2cccc(S(=O)(=O)CC(=O)O)c2)cc1)Cc1ccc(C(F)(F)F)o1` [Example 9], the EC50 in series [1] was in the range of 1000 to 10000 nM. For the same compound, the values for the concentration at 4 h in series [2] (setting [6]) and in series [2] (setting [8]) were 18.2 µM and 0.134 µM, respectively. Moreover, the Kp at 4 h in series [2] (setting [7]) worked out at 135.
As to `Cc1ccc2ccccc2c1CN(Cc1ccc(-c2cccc(C(C)(C)C(=O)O)c2)cc1)Cc1ccc(C(F)(F)F)o1` [Example 24, 2-Methyl-2-(4′-((((2-methylnaphthalen-1-yl)methyl)((5-(trifluoromethyl)furan-2-yl)methyl)amino)methyl)-[1,1′-biphenyl]-3-yl)propanoic acid], the EC50 in series [1] is less than 100 nM. The concentration at 4 h came out at 2.6 µM in series [2] (liver, three oral doses of 5 mg/kg each, read-out: liver exposure, 4 h); 8.93 µM in series [2] (setting [6]); 0.893 µM in series [2] (plasma, three oral doses of 5 mg/kg each, read-out: plasma exposure, 4 h); 3.52 µM in series [2] (setting [8]). The Kp at 4 h is 2.9 in series [2] (three oral doses of 5 mg/kg each) and 2.5 in series [2] (setting [7]).
